Data published in ChEMBL document CHEMBL3351363 (J Med Chem, 2014).

Columns and labels:
[1] = target: T1, Muscarinic acetylcholine receptor M1 (Homo sapiens, UniProt P11229); experiment: Agonist activity at human M1 receptor expressed in HEK293T cells by BRET based Gq protein activation assay; type: cell-based, HEK-293T
T1 sequence (P11229 whole entry): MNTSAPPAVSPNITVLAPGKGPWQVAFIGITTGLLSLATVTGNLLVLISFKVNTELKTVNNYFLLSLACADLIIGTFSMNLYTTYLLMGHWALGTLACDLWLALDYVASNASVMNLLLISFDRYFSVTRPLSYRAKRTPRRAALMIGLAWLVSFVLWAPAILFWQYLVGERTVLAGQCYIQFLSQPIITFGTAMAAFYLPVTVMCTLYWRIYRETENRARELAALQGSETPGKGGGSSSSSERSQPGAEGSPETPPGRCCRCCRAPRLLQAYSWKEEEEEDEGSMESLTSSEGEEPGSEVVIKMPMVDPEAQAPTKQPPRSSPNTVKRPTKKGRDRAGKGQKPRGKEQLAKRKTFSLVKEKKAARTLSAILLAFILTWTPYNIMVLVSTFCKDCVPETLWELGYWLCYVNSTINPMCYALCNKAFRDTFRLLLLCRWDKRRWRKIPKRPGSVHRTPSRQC

[2] = target: T2, Muscarinic acetylcholine receptor M4 (Homo sapiens, UniProt P08173)
T2 sequence (P08173 whole entry): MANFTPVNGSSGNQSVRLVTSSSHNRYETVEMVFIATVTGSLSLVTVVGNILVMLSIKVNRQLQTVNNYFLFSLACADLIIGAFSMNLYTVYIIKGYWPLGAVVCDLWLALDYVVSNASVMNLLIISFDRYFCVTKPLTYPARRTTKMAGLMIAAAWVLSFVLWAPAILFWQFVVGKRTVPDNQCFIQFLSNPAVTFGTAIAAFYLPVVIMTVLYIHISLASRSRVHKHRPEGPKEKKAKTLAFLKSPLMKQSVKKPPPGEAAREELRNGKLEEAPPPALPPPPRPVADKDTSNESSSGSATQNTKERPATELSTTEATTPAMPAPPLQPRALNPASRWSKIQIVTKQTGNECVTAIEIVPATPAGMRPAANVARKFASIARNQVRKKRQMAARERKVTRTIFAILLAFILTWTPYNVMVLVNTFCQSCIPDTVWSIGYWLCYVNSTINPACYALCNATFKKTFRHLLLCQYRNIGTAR

[3] = target: T1, Muscarinic acetylcholine receptor M1; type: cell-based, HEK-293T
[4] = target: T3, Muscarinic acetylcholine receptor M4 (Homo sapiens) (UniProt P08173); experiment: Antagonist activity at human M4 receptor expressed in HEK293T cells assessed as inhibition of carbachol-induced response by BRET based Gi protein activation assay relative to untreated control; conditions: HEK-293T
T3 sequence (whole entry): T2 sequence (P08173 whole entry)

[5] = target: T3, Muscarinic acetylcholine receptor M4 (Homo sapiens); experiment: Agonist activity at human M4 receptor expressed in HEK293T cells by BRET based Gi protein activation assay relative to carbachol; conditions: HEK-293T
[6] = target: T2, Muscarinic acetylcholine receptor M4; experiment: Antagonist activity at human M4 receptor expressed in HEK293T cells assessed as inhibition of carbachol-induced response by beta-arrestin engagement assay; type: cell-based, HEK-293T
[7] = target: T1, Muscarinic acetylcholine receptor M1
[8] = target: T4, Muscarinic acetylcholine receptor M1 (Homo sapiens) (UniProt P11229); experiment: Agonist activity at human M1 receptor expressed in HEK293T cells by BRET based Gq protein activation assay relative to carbachol; type: cell-based; conditions: HEK-293T
T4 sequence (whole entry): T1 sequence (P11229 whole entry)

[9] = target: T5, Muscarinic acetylcholine receptor M5 (Homo sapiens, UniProt P08912); experiment: Displacement of [3H]NMS from human M5 receptor expressed in CHO cells by microplate scintillation counting based radioligand binding assay; type: cell-based
T5 sequence (P08912 whole entry): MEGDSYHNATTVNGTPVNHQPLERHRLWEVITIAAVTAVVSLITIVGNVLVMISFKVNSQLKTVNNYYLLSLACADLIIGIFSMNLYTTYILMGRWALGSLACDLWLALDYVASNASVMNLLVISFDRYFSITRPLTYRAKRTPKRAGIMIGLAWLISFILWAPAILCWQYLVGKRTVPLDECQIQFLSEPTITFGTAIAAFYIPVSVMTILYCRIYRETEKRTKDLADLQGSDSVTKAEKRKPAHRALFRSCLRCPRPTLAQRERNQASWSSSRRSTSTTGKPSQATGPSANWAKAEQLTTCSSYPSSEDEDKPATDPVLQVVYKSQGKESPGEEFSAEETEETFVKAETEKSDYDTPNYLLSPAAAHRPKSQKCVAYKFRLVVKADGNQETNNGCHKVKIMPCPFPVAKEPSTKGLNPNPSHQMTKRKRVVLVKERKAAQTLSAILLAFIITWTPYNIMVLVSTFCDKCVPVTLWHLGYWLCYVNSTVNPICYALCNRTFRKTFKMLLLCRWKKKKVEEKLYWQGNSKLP

[10] = target: Muscarinic acetylcholine receptor M3 (Homo sapiens, UniProt P20309); experiment: Displacement of [3H]NMS from human M3 receptor expressed in CHO cells by microplate scintillation counting based radioligand binding assay; type: cell-based
[11] = target: T3, Muscarinic acetylcholine receptor M4 (Homo sapiens); experiment: Antagonist activity at human M4 receptor expressed in HEK293T cells assessed as inhibition of carbachol-induced response by beta-arrestin engagement assay relative to untreated control; type: cell-based; conditions: HEK-293T
[12] = target: T1, Muscarinic acetylcholine receptor M1; type: cell-based, HEK-293T; remark: listed apart in the source
[13] = target: T3, Muscarinic acetylcholine receptor M4 (Homo sapiens); experiment: Antagonist activity at human M4 receptor expressed in HEK293T cells assessed as inhibition of carbachol-induced response by BRET based Gq protein engagement assay relative to untreated control; type: cell-based; conditions: HEK-293T
[14] = target: T1, Muscarinic acetylcholine receptor M1; experiment: Displacement of [3H]NMS from human M1 receptor expressed in CHO cells by microplate scintillation counting based radioligand binding assay; type: cell-based
[15] = target: T3, Muscarinic acetylcholine receptor M4 (Homo sapiens); experiment: Agonist activity at human M4 receptor expressed in HEK293T cells by BRET based Gq protein engagement assay relative to carbachol; type: cell-based; conditions: HEK-293T
[16] = target: T2, Muscarinic acetylcholine receptor M4; experiment: Agonist activity at human M4 receptor expressed in HEK293T cells by BRET based Gq protein engagement assay
[17] = target: T2, Muscarinic acetylcholine receptor M4; experiment: Agonist activity at human M4 receptor expressed in HEK293T cells by BRET based Gq protein activation assay
[18] = target: T2, Muscarinic acetylcholine receptor M4; experiment: Antagonist activity at human M4 receptor expressed in HEK293T cells assessed as inhibition of carbachol-induced response by BRET based Gq protein engagement assay; type: cell-based, HEK-293T
[19] = target: T6, Muscarinic acetylcholine receptor M2 (Homo sapiens, UniProt P08172); experiment: Displacement of [3H]NMS from human M2 receptor expressed in CHO cells by microplate scintillation counting based radioligand binding assay; type: cell-based
T6 sequence (P08172 whole entry): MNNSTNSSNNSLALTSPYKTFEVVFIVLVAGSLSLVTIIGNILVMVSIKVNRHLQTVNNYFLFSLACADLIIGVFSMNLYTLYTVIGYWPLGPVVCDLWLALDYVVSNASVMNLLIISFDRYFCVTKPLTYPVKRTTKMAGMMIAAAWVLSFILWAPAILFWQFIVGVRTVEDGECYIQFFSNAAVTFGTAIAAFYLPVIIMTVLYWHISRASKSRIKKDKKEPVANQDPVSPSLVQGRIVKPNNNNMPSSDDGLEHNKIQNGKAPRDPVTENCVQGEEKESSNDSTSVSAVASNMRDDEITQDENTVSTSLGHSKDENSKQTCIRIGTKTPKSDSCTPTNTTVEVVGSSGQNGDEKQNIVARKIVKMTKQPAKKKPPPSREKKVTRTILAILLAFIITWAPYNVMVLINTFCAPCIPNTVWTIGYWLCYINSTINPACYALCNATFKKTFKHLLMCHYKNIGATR

[20] = target: T4, Muscarinic acetylcholine receptor M1 (Homo sapiens); experiment: Agonist activity at human M1 receptor expressed in HEK293T cells by BRET based Gq protein engagement assay relative carbachol; type: cell-based; conditions: HEK-293T
[21] = target: T2, Muscarinic acetylcholine receptor M4; experiment: Displacement of [3H]NMS from human M4 receptor expressed in CHO cells by microplate scintillation counting based radioligand binding assay; type: cell-based
[22] = target: T1, Muscarinic acetylcholine receptor M1; experiment: Agonist activity at human M1 receptor expressed in HEK293T cells by BRET based Gq protein engagement assay
[23] = target: T4, Muscarinic acetylcholine receptor M1 (Homo sapiens); experiment: Agonist activity at human M1 receptor expressed in HEK293T cells by BRET based beta-arrestin engagement assay relative to carbachol; type: cell-based; conditions: HEK-293T
[24] = target: T1, Muscarinic acetylcholine receptor M1; experiment: Agonist activity at human M1 receptor expressed in HEK293T cells by BRET based beta-arrestin engagement assay
[25] = target: T3, Muscarinic acetylcholine receptor M4 (Homo sapiens); experiment: Agonist activity at human M4 receptor expressed in HEK293T cells by BRET based beta-arrestin engagement assay relative to carbachol; type: cell-based; conditions: HEK-293T
[26] = target: T4, Muscarinic acetylcholine receptor M1 (Homo sapiens); experiment: Positive modulatory activity at human M1 receptor expressed in HEK293T cells assessed as effect on carbachol-induced response by BRET based Gq protein activation assay relative to untreated control; type: cell-based; conditions: HEK-293T
[27] = target: T1, Muscarinic acetylcholine receptor M1; experiment: Positive modulatory activity at human M1 receptor expressed in HEK293T cells assessed as effect on carbachol-induced response by BRET based Gq protein engagement assay; type: cell-based, HEK-293T
[28] = target: T4, Muscarinic acetylcholine receptor M1 (Homo sapiens); experiment: Positive modulatory activity at human M1 receptor expressed in HEK293T cells assessed as effect on carbachol-induced response by BRET based Gq protein engagement assay relative to untreated control; type: cell-based; conditions: HEK-293T
[29] = target: T1, Muscarinic acetylcholine receptor M1; experiment: Positive modulatory activity at human M1 receptor expressed in HEK293T cells assessed as effect on carbachol-induced response by BRET based Gq protein activation assay; type: cell-based, HEK-293T

Chain of Muscarinic acetylcholine receptor M3 (P20309 whole entry): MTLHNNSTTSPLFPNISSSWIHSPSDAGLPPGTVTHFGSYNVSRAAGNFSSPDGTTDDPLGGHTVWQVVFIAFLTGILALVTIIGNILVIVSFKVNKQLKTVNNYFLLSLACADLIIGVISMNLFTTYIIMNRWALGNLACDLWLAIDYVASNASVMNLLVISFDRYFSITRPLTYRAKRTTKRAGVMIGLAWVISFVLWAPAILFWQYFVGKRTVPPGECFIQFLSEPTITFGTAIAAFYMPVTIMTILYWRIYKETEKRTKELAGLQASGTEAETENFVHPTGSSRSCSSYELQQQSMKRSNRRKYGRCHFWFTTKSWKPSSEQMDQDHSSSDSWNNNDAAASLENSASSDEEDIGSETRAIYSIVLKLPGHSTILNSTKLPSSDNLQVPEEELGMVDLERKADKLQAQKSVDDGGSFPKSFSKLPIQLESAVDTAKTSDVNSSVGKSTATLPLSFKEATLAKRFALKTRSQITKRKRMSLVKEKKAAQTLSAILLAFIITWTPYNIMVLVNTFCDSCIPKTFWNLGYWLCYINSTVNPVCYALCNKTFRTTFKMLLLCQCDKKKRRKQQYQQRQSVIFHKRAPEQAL

| SMILES | EC50 [1] | IC50 [2] | IC50 [3] | Imax [4] | Emax [5] | IC50 [6] | IC50 [7] | Emax [8] | Ki [9] | Ki [10] | Imax [11] | IC50 [12] | Imax [13] | Ki [14] | Emax [15] | EC50 [16] | IC50 [18] | Ki [19] | Emax [20] | Ki [21] | further results |
| --- | --- | --- | --- | --- | --- | --- | --- | --- | --- | --- | --- | --- | --- | --- | --- | --- | --- | --- | --- | --- | --- |
| CN1CCC=C(c2nsnc2OCCCCCC2CCN(CCCN3C(=O)CCc4ccccc43)CC2)C1 | 20.4 nM | 631 nM | 646 nM | < 100% | 27% | 355 nM | 4270 nM | 13% | 5.62 nM | 4.68 nM | < 100% | 5370 nM | < 100% | 6.76 nM | < 0% | 7080 nM | 447 nM | 11 nM | < 0% | 7.94 nM | EC50 [17]: 30.9 nM |
| CN1CCC=C(c2nsnc2OCCCCCCCC2CCN(CCCN3C(=O)CCc4ccccc43)CC2)C1 | 41.7 nM | 1860 nM | 741 nM | 60% | 40% | 145 nM | 21.9 nM | 25% | 2.29 nM | 0.794 nM | 14% | 380 nM | 92% | 0.912 nM | 18% | 18.6 nM | 407 nM | 1.38 nM | 42% | 0.891 nM | EC50 [22]: 166 nM; EC50 [17]: 35.5 nM; Emax [23]: 42%; EC50 [24]: 174 nM |
| CCCCCCOc1nsnc1C1=CCCN(C)C1 [XANOMELINE] |  |  |  |  | 94% |  |  | 77% |  | 7.76 nM |  |  |  |  |  |  |  |  | 54% |  | Emax [25]: 42%; Emax [23]: 95% |
| O=C1CCc2ccccc2N1CCCN1CCC(CCCCCCCO)CC1 | 100 nM | 589 nM |  | 54% | < 0% | 794 nM | 1150 nM | 73% | 3090 nM | 631 nM | 93% |  | < 100% | 355 nM | < 0% |  | 1480 nM | 209 nM | 76% | 389 nM | Emax [26]: 44%; EC50 [27]: 69.2 nM; Emax [28]: 21%; EC50 [22]: 229 nM; EC50 [29]: 85.1 nM |
